Experimental data as given in patent US5405843A, “Quinoline derivatives” (Mitsui Toatsu Chemicals, Incorporated, priority 1988, dated 1995).

Test system: Adriamycin resistant strain 2780 AD cells of human ovarian cancer A2780 cells
Assay: Potentiating effect on incorporation of 3H-vincristine into adriamycin-resistant cancer cells
Format: cell-based
Settings: 20 nM 3H-vincristine; for activity at 1 µg/mL / activity at 10 µg/mL: Homo sapiens, 2780AD, 2 h, control = 100, read-out: 3H-vincristine accumulation; for activity at 10 µg/mL: compound 10 μg/ml
Experimental: Potentiating Effect of the Compounds on Incorporation of Anticancer Drugs into Drug-resistant Cancer Cells
Adriamycin resistant strain 2780 AD cells of human ovarian cancer A2780 cells (A. M. Rogan et al., Science 224, 994-996, 1984) were suspended at a concentration of 1×10^6 /ml in RPMI-1640 medium supplemented with 5% fetal calf serum, and 1 ml of the cancer cell suspension was dispensed into each well of a multi-well culture plate (24 wells, […] in diameter) and then incubated at 37° C. in an atmosphere of 5% CO2. After 24 hours incubation, the medium in each well was replaced by 0.5 ml of RPMI-1640 medium supplemented containing 20 nM ^3 H-vincristine (1×10^4 dpm/pmol), 5% fetal calf serum and 10 mM Hepes buffer. Five microliters of a solution of the compound to be tested, which had been dissolved in DMSO and diluted with […] (at a concentration of 1.0 microgram/ml or 10.0 micrograms/ml), was added to each well and the incubation was continued at 37° C. in 5% CO2 for 2 hours. The resultant cells were washed in cold saline-phosphate buffer. In each well was added 0.5 ml of 0.2N NaOH, and the resulting cell suspension in each well was independently transferred into a vial and then heated in a water bath at 56° C. for 30-60 minutes to dissolve the cells. After adding 4 ml of acid aquazole 2, the amount of ^3 H-vincristine incorporated into the cells was determined by a fluid scintillation counter.

For `OC(COc1cccc2nccnc12)CN1CCN(C(c2ccccc2)c2ccccc2)CC1` (stereo not shown) [Example 50, 5-[3-(4-Diphenylmethylpiperazine-1-yl)-2-hydroxypropoxy]quinoxaline], the activity at 1 µg/mL (compound 1 μg/ml) was 559% and the activity at 10 µg/mL was 668%.
`OC(CNCCNC1c2ccccc2CCc2ccccc21)COc1cccc2ncccc12` (stereo not shown) [Example 62, 5-[3-(N'-(Dibenzosuberane-5-yl)ethylenediamino)-2-hydroxypropoxy]quinoline] gave an activity at 1 µg/mL (compound 1 μg/ml) of 525%.
`CSc1ccc2c(OCC(O)CN3CCN(C(=O)C(c4ccccc4)c4ccccc4)CC3)cccc2n1` (stereo not drawn) [Example 65, 2-Methylthio-5-[3-(4-(α,α-diphenylacetyl)piperazine-1-yl)-2-hydroxypnopoxy]quinoline] was tested, and the activity at 1 µg/mL (compound 1 μg/ml) was 297% and the activity at 10 µg/mL was 985%.
`OC(COc1cccc2nc(C(F)(F)F)cc(C(F)(F)F)c12)CN1CCN(C2c3ccccc3CCc3ccccc32)CC1` (stereo not shown) [Example 76, 5-[3-(4-(Dibenzosuberane-5-yl)piperazine-1-yl)-2-hydroxypropoxy]-2,4-bis(trifluoromethyl)quinoline] showed an activity at 1 µg/mL (compound 1 μg/ml) of 130% and an activity at 10 µg/mL of 304%.
`O=[N+]([O-])c1ccc(OCC(O)CN2CCN(C(c3ccccc3)c3ccccc3)CC2)c2cccnc12` (stereo not shown) [Example 26, 5-[3-(4-Diphenylmethylpiperazine-1-yl)-2-hydroxypropoxy]-8-nitroquinoline] showed an activity at 1 µg/mL (compound 1 μg/ml) of 177%.
For `CC(=O)OC(CN1CCN(C(c2ccccc2)c2ccccc2)CC1)CN(C(C)=O)c1cccc2ncccc12` (stereo not shown) [Example 39, 5-[N-Acetyl-(2-acetoxy-3-(4-diphenylmethylpiperazine-1-yl)propylamino)]quinoline], the activity at 1 µg/mL (compound 1 μg/ml) was 236% and the activity at 10 µg/mL was 908%.
`CC(=O)N(CC(O)CN1CCN(C(c2ccccc2)c2ccccc2)CC1)c1cccc2ncccc12` (stereo not shown) [Example 40, 5-[N-Acetyl-(3-(4-diphenylmethylpiperazine-1-yl)-2-hydroxypropylamino)]quinoline] gave an activity at 1 µg/mL (compound 1 μg/ml) of 259%.
In the case of `OC(COc1cccc2cnccc12)CN1CCCN(C(c2ccccc2)c2ccccc2)CC1` (stereo not shown) [Example 45, 5-[3-(4-Diphenylmethylhomopiperazine-1-yl)-2-hydroxypropoxy]isoquinoline], the activity at 1 µg/mL (compound 1 μg/ml) is reported as 307% and the activity at 10 µg/mL is reported as 982%.
`OC(COc1cccc2ncccc12)CN1CCC(C(c2ccccc2)c2ccccc2)CC1` (stereo not shown) [Example 14, 5-[3-(4-(Diphenylmethyl)piperidine-1-yl)-2-hydroxypropoxy]quinoline] gave an activity at 1 µg/mL (compound 1 μg/ml) of 119% and an activity at 10 µg/mL of 871%.
In the case of `CS(=O)(=O)c1ccc2c(OCC(O)CN3CCN(C4c5ccccc5CCc5ccccc54)CC3)cccc2n1` (stereo not shown) [Example 71, 2-Methylsufonyl-5-[3-(4-(dibenzosuberane-5-yl)piperazine-1-yl)-2-hydroxypropoxy]quinoline], the activity at 1 µg/mL (compound 1 μg/ml) is reported as 501% and the activity at 10 µg/mL is reported as 921%.
In the case of `Cc1cc(C(F)(F)F)nc2cccc(OCC(O)CN3CCN(C4c5ccccc5CCc5ccccc54)CC3)c12` (stereo not shown) [Example 54, 2-Trifluoromethyl-4-methyl-5-[3-(4-(dibenzosuberane-5-yl)piperazine-1-yl)-2-hydroxypropoxy]quinoline], the activity at 1 µg/mL (compound 1 μg/ml) is reported as 253% and the activity at 10 µg/mL is reported as 777%.
Work on `OC(COc1cccc2ccncc12)CN1CCN(C(c2ccccc2)c2ccccc2)CC1` (stereo not shown) [Example 47, 8-[3-(4-Diphenylmethylpiperazine-1-yl)-2-hydroxypropoxy]isoquinoline] yielded an activity at 1 µg/mL (compound 1 μg/ml) of 322% and an activity at 10 µg/mL of 879%.
`Cc1cc(C(F)(F)F)nc2cccc(OCC(O)CN3CCN(C(c4ccccc4)c4ccccc4)CC3)c12` (stereo not shown) [Example 56, 2-Trifluoromethyl-4-methyl-5-[3-(4-diphenylmethylpiperazine-1-yl)-2-hydroxypropoxy]quinoline] gave an activity at 1 µg/mL (compound 1 μg/ml) of 321% and an activity at 10 µg/mL of 735%.
Molecule `OC(CNCC(c1ccccc1)c1ccccc1)COc1cccc2ncccc12` (stereo not shown) [Example 70, 5-[3-(2,2-Diphenylethylamino)-2-hydroxypropoxy]quinoline] has an activity at 1 µg/mL (compound 1 μg/ml) of 252% and an activity at 10 µg/mL of 960%.
`CN(CCC=C1c2ccccc2CCc2ccccc21)CC(O)COc1cccc2ncccc12` (stereo not shown) [Example 68, 5-(3[N-{3-dibenzosuberane-5-ylidene)propy}-N-methylamino-2-hydroxypropoxy)quinoline] gave an activity at 1 µg/mL (compound 1 μg/ml) of 671%.
In the case of `OC(COc1ccc(Cl)c2ncccc12)CN1CCN(C(c2ccccc2)c2ccccc2)CC1` (stereo not shown) [Example 29, 5-[3-(4-Diphenylmethylpiperazine-1-yl)-2-hydroxypropoxy]-8-chloroquinoline], the activity at 1 µg/mL (compound 1 μg/ml) is reported as 246%.
In the case of `Cc1cc(C)c2c(OCC(O)CN3CCC(=C(c4ccccc4)c4ccccc4)CC3)cccc2n1` (stereo not shown) [Example 67, 2,4-Dimethyl-5-[3-(4-diphenylmethylenepiperizine-1-yl)-2-hydroxypropoxy]quinoline], the activity at 1 µg/mL (compound 1 μg/ml) is reported as 730%.
Work on `OC(COc1cccc2ncncc12)CN1CCN(C(c2ccccc2)c2ccccc2)CC1` (stereo not shown) [Example 51, 5-[3-(4-Diphenylmethylpiperazine-1-yl)-2-hydroxypropoxy]quinazoline] yielded an activity at 1 µg/mL (compound 1 μg/ml) of 534% and an activity at 10 µg/mL of 798%.
Molecule `OC(CSc1cccc2ncccc12)CN1CCN(C(c2ccccc2)c2ccccc2)CC1` (stereo not shown) [Example 74, 5-[3-(4-Diphenylmethylpiperazine-1-yl)-2-hydroxypropylthio]qunoline] has a 3H-vincristine accumulation (compound 1 μg/ml, 2 hours, control = 100, 120 min) of 626%.
For `CN(C(=O)CCN1CCN(C2c3ccccc3CCc3ccccc32)CC1)c1cccc2ncccc12` [Example 38, 5-[N-methyl-(3-(4-dibenzosuberanylpiperazine-1-yl)-propionamide)]quinoline], the activity at 1 µg/mL (compound 1 μg/ml) was 378% and the activity at 10 µg/mL was 819%.
For `Cc1ccc(OCC(O)CN2CCN(C(c3ccccc3)c3ccccc3)CC2)c2cccnc12` (stereo not shown) [Example 24, 5-[3-(4-Diphenylmethylpiperazine-1-yl)-2-hydroxypropoxy]-8-methylquinoline], the activity at 1 µg/mL (compound 1 μg/ml) was 146% and the activity at 10 µg/mL was 931%.
`OC(COc1cccc2nc(Cl)ccc12)CN1CCC(C(O)(c2ccccc2)c2ccccc2)CC1` (stereo not shown) [Example 19, 5-[3-(4-(Diphenyl-hydroxymethyl)piperidine-1-yl)-2-hydroxypropoxy]-2-chloroquinoline] gave an activity at 1 µg/mL (compound 1 μg/ml) of 374% and an activity at 10 µg/mL of 524%.
Molecule `Cc1cc(C)c2c(OCC(O)CN(C)CCN(C)C3c4ccccc4CCc4ccccc43)cccc2n1` (stereo not shown) [Example 66, 2,4-Dimethyl-5-[3-(N,N'-dimethyl-N'-(dibenzosuberane-5-yl)ethylenediamino)-2-hydroxypropoxy]quinoline] has an activity at 1 µg/mL (compound 1 μg/ml) of 488%.
`OC(CSc1cccc2ncccc12)CN1CCN(C2c3ccccc3CCc3ccccc32)CC1` (stereo not shown) [Example 75, 5-[3-(4-(Dibenzosuberane-5-yl)piperazine-1-yl)-2-hydroxy-propylthio]quinoline] showed an activity at 1 µg/mL (compound 1 μg/ml) of 587%.
In the case of `OC(COc1cccc2cccnc12)CN1CCN(C(c2ccccc2)c2ccccc2)CC1` (stereo not shown) [Example 49, 8-[3-(4-Diphenylmethylpiperazine-1-yl)-2-hydroxypropoxy]-quinoline], the activity at 1 µg/mL (compound 1 μg/ml) is reported as 213% and the activity at 10 µg/mL is reported as 612%.
Molecule `CN(C(=O)CCN1CCN(C(c2ccccc2)c2ccccc2)CC1)c1cccc2ncccc12` [Example 37, 5-[N-Methyl-(3-(4-diphenylmethylpiperazine-1-yl)propionamido)]quinoline] has an activity at 1 µg/mL (compound 1 μg/ml) of 549% and an activity at 10 µg/mL of 1000%.
Work on `OC(COc1cccc2ncccc12)CN1CCN(C2c3ccccc3Oc3ccccc32)CC1` (stereo not shown) [Example 72, 5-[3-(4-(Xanthene-9-yl)piperazine-1-yl)-2-hydroxypropoxy]quinoline] yielded an activity at 1 µg/mL (compound 1 μg/ml) of 112% and an activity at 10 µg/mL of 144%.
For `c1ccc(C(c2ccccc2)N2CCN(CCCCOc3cccc4ncccc34)CC2)cc1` [Example 33, 5-[4-(4-Diphenylmethylpiperazine-1-yl)butoxy]quinoline], the activity at 1 µg/mL (compound 1 μg/ml) was 447%.
`OC(COc1cccc2ncccc12)CN1CCC(C2(O)c3ccccc3C=Cc3ccccc32)CC1` (stereo not shown) [Example 79, 5-[2-Hydroxy-3-(4-(5-hydroxydibenzosuberene-5-yl)piperidine-1-yl)propoxy]quinoline] was tested, and the activity at 1 µg/mL (compound 1 μg/ml) was 841% and the activity at 10 µg/mL was 963%.
`Cc1ccc2ncccc2c1OCC(O)CN1CCN(C(c2ccccc2)c2ccccc2)CC1` (stereo not shown) [Example 23, 5-[3-(4-Diphenylmethylpiperazine-1-yl)-2-hydroxypropoxy]-6-methylguinoline] showed an activity at 1 µg/mL (compound 1 μg/ml) of 723%.
`OC(COc1ccnc2ccccc12)CN1CCN(C(c2ccccc2)c2ccccc2)CC1` (stereo not shown) [Example 46, 4-[3-(4-Diphenylmethylpiperazine-1-yl)-2-hydroxypropoxy]quinoline] was tested, and the activity at 1 µg/mL (compound 1 μg/ml) was 142% and the activity at 10 µg/mL was 987%.
Work on `CSc1ccc2c(OCC(O)CN3CCN(C4c5ccccc5CCc5ccccc54)CC3)cccc2n1` (stereo not shown) [Example 64, 2-Methylthio-5-[3-(4-(dibenzosuberane-5-yl)piperazine-1-yl)-2-hydroxypropoxy]quinoline] yielded an activity at 1 µg/mL (compound 1 μg/ml) of 425% and an activity at 10 µg/mL of 900%.
Molecule `CN(CCN(C)C1c2ccccc2CCc2ccccc21)CC(O)COc1cccc2ncccc12` (stereo not shown) [Example 63] has an activity at 1 µg/mL (compound 1 μg/ml) of 773%.
Work on `OC(COc1cccc2cnccc12)CN1CCN(C(c2ccccc2)c2ccccc2)CC1` (stereo not shown) [Example 43, 5-[3-(4-Diphenylmethylpiperazine-1-yl)-2-hydroxypropoxy]isoquinoline] yielded an activity at 1 µg/mL (compound 1 μg/ml) of 531%.
